Values of other authors in patent publication US20070148249A1, “Method of preparation of oral solid dosage form with instant release of acting” (priority 2003, published 2007).
Read-outs that look alike come from different tables or passages of the source.

In the case of `CC(C)(C)NC(=O)[C@H]1CC[C@H]2[C@@H]3CC[C@H]4NC(=O)C=C[C@]4(C)[C@H]3CC[C@]12C` [Finasteride, (5α,17β)-N-(1,1-dimethylethyl)-3-oxo-4-azaandrost-1-en-17-carboxamide], the Solubility (in chloroform and lower alcohols) is listed as “well soluble” and the Solubility (in water) is listed as “almost insoluble”.
